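Cultured in 96-well plates, cells were exposed to test compound for 48 hours across five concentrations. TGI: total growth inhibition.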
Each compound was assayed on RPMI-8226 leukemia (assay: NCI tumour cell line growth inhibition, 48 h).

Row | Structure (SMILES) | TGI
1 | COc1ccc2nc3ccc(OC)cc3c(S(=O)CCCl)c2c1 (configuration not stated) | 4.9 µM
2 | CNc1ccc(OC)cc1S(=O)(=O)c1ccccc1[N+](=O)[O-] | > 100 µM
3 | CC1(CCCO)CCCCCC(C)(CCCO)C1=O (configuration not stated) | > 100 µM

The compounds below were run on SF-268 CNS (assay: NCI tumour cell line growth inhibition, 48 h).

Row | Structure (SMILES) | TGI
4 | O=Cc1ccc2c(c1)CC1(C2)Cc2ccc3c(c2C1)CCC3 (configuration not stated) | 41.9 µM
5 | CC(=O)Nc1cc(C(=O)Nc2cc(C(=O)N3CC(CCl)c4c3cc(N)c3ccccc43)nn2C)nn1C (configuration not stated) | 0.128 µM
6 | O=C(O)c1n[nH]nc1Cl | > 100 µM
7 | C=C(C)C(CC=C(C)C)CC12CC(CC=C(C)C)C(C)(C)C(CC=C(C)C)(C(=O)C(Cc3ccc(O)c(O)c3)=C1O)C2=O (configuration not stated) | > 100 µM
8 | NC(Cc1cccc([N+](=O)[O-])c1)C(=O)O (configuration not stated) | > 100 µM
9 | CCC(=O)NC(Nc1cccc(F)c1C)(C(F)(F)F)C(F)(F)F | > 100 µM
10 | CCCCCN=Cc1c(O)c(O)c(C(C)C)c2cc(C)c(-c3c(C)cc4c(C(C)C)c(O)c(O)c(C=NCCCCC)c4c3O)c(O)c12 | 47.3 µM
11 | Clc1c(Cl)c(Cl)c2nn(C3CCCO3)nc2c1Cl (configuration not stated) | > 100 µM
12 | O/N=C1/COC(C(F)(F)F)(C(F)(F)F)C1 | > 100 µM
13 | O=c1[nH]c(-c2ccc3ccccc3c2)nc2ccccc12 | > 100 µM
14 | COc1ccc(C(=O)Sc2c(-c3ccccc3)c(=O)n(-c3ccccc3)c(=S)n2-c2ccccc2)cc1 | > 100 µM
15 | CCc1nc(N)nc(N)c1-c1ccc(Cl)c(Cl)c1 | > 100 µM
16 | COCCOCc1nc(C#N)c(N)o1 | > 100 µM
17 | CC1=C(C#N)C(C#N)(C#N)C(NN(C)C)C1 (configuration not stated) | 78.7 µM
18 | CN1C(=O)N/C(=C\c2ccc(S(=O)(=O)NN)cc2)C1=O | > 100 µM
19 | COc1nc(C(=O)NNC(=O)c2nc(OC)c3ccccc3c2-c2ccccc2)c(-c2ccccc2)c2ccccc12 | > 100 µM
20 | CCSc1n/c(=C\c2ccco2)c2nnnn12 | > 100 µM
21 | COc1cc(Nc2cnc3cc(F)c(F)cc3n2)cc(OC)c1OC | > 100 µM
22 | Cc1nc2ccccc2c(=O)n1NC(=O)c1ccc(CS)cc1 | 52 µM
23 | COc1ccc2nc3ccc(OC)cc3c(S(=O)CCCl)c2c1 (configuration not stated) | 28.2 µM
24 | CNc1ccc(OC)cc1S(=O)(=O)c1ccccc1[N+](=O)[O-] | > 100 µM
25 | CC1(CCCO)CCCCCC(C)(CCCO)C1=O (configuration not stated) | > 100 µM

Each compound was assayed on SK-MEL-5 melanoma (assay: NCI tumour cell line growth inhibition, 48 h).

Row | Structure (SMILES) | TGI
26 | O=Cc1ccc2c(c1)CC1(C2)Cc2ccc3c(c2C1)CCC3 (configuration not stated) | 15.9 µM
27 | CC(=O)Nc1cc(C(=O)Nc2cc(C(=O)N3CC(CCl)c4c3cc(N)c3ccccc43)nn2C)nn1C (configuration not stated) | 1.23 µM
28 | O=C(O)c1n[nH]nc1Cl | > 100 µM
29 | C=C(C)C(CC=C(C)C)CC12CC(CC=C(C)C)C(C)(C)C(CC=C(C)C)(C(=O)C(Cc3ccc(O)c(O)c3)=C1O)C2=O (configuration not stated) | > 100 µM
30 | NC(Cc1cccc([N+](=O)[O-])c1)C(=O)O (configuration not stated) | > 100 µM
31 | CCC(=O)NC(Nc1cccc(F)c1C)(C(F)(F)F)C(F)(F)F | > 100 µM
32 | CCCCCN=Cc1c(O)c(O)c(C(C)C)c2cc(C)c(-c3c(C)cc4c(C(C)C)c(O)c(O)c(C=NCCCCC)c4c3O)c(O)c12 | 28.1 µM
33 | Clc1c(Cl)c(Cl)c2nn(C3CCCO3)nc2c1Cl (configuration not stated) | > 100 µM
34 | N#C/C(C(=O)Nc1ccccc1)=C(/N)N1CCOCC1 | > 100 µM
35 | O/N=C1/COC(C(F)(F)F)(C(F)(F)F)C1 | > 100 µM
36 | O=c1[nH]c(-c2ccc3ccccc3c2)nc2ccccc12 | > 100 µM
37 | CS(=O)(=O)Nc1ccc(N2Cc3cnc4ccc5[nH]ccc2c5c34)cc1 | 29 µM
38 | CCc1nc(N)nc(N)c1-c1ccc(Cl)c(Cl)c1 | > 100 µM
39 | COCCOCc1nc(C#N)c(N)o1 | > 100 µM
40 | CC1=C(C#N)C(C#N)(C#N)C(NN(C)C)C1 (configuration not stated) | 17.5 µM
41 | CN1C(=O)N/C(=C\c2ccc(S(=O)(=O)NN)cc2)C1=O | > 100 µM
42 | COc1nc(C(=O)NNC(=O)c2nc(OC)c3ccccc3c2-c2ccccc2)c(-c2ccccc2)c2ccccc12 | > 100 µM
43 | CCSc1n/c(=C\c2ccco2)c2nnnn12 | > 100 µM
44 | COc1cc(Nc2cnc3cc(F)c(F)cc3n2)cc(OC)c1OC | > 100 µM
45 | Cc1nc2ccccc2c(=O)n1NC(=O)c1ccc(CS)cc1 | 29.2 µM
46 | COc1ccc2nc3ccc(OC)cc3c(S(=O)CCCl)c2c1 (configuration not stated) | 28.2 µM
47 | CNc1ccc(OC)cc1S(=O)(=O)c1ccccc1[N+](=O)[O-] | > 100 µM
48 | CC1(CCCO)CCCCCC(C)(CCCO)C1=O (configuration not stated) | > 100 µM

The compounds below were run on SW-620 colon (assay: NCI tumour cell line growth inhibition, 48 h).

Row | Structure (SMILES) | TGI
49 | O=Cc1ccc2c(c1)CC1(C2)Cc2ccc3c(c2C1)CCC3 (configuration not stated) | 15.2 µM
50 | O=C(O)c1n[nH]nc1Cl | > 100 µM
51 | C=C(C)C(CC=C(C)C)CC12CC(CC=C(C)C)C(C)(C)C(CC=C(C)C)(C(=O)C(Cc3ccc(O)c(O)c3)=C1O)C2=O (configuration not stated) | > 100 µM
52 | NC(Cc1cccc([N+](=O)[O-])c1)C(=O)O (configuration not stated) | > 100 µM
53 | CCC(=O)NC(Nc1cccc(F)c1C)(C(F)(F)F)C(F)(F)F | > 100 µM
54 | CCCCCN=Cc1c(O)c(O)c(C(C)C)c2cc(C)c(-c3c(C)cc4c(C(C)C)c(O)c(O)c(C=NCCCCC)c4c3O)c(O)c12 | > 100 µM
55 | N#C/C(C(=O)Nc1ccccc1)=C(/N)N1CCOCC1 | > 100 µM
56 | O/N=C1/COC(C(F)(F)F)(C(F)(F)F)C1 | > 100 µM
57 | O=c1[nH]c(-c2ccc3ccccc3c2)nc2ccccc12 | > 100 µM
58 | CS(=O)(=O)Nc1ccc(N2Cc3cnc4ccc5[nH]ccc2c5c34)cc1 | > 100 µM
59 | COc1ccc(C(=O)Sc2c(-c3ccccc3)c(=O)n(-c3ccccc3)c(=S)n2-c2ccccc2)cc1 | > 100 µM
60 | CCc1nc(N)nc(N)c1-c1ccc(Cl)c(Cl)c1 | > 100 µM
61 | COCCOCc1nc(C#N)c(N)o1 | > 100 µM
62 | CC1=C(C#N)C(C#N)(C#N)C(NN(C)C)C1 (configuration not stated) | > 100 µM
63 | CN1C(=O)N/C(=C\c2ccc(S(=O)(=O)NN)cc2)C1=O | > 100 µM
64 | COc1nc(C(=O)NNC(=O)c2nc(OC)c3ccccc3c2-c2ccccc2)c(-c2ccccc2)c2ccccc12 | > 100 µM
65 | CCSc1n/c(=C\c2ccco2)c2nnnn12 | > 100 µM
66 | CC(=O)OCc1cc(CCC(=O)NCCNc2c3ccccc3nc3ccccc23)cc(COC(C)=O)c1O[Si](C)(C)C(C)(C)C | 30.1 µM
67 | COc1cc(Nc2cnc3cc(F)c(F)cc3n2)cc(OC)c1OC | > 100 µM
68 | Cc1nc2ccccc2c(=O)n1NC(=O)c1ccc(CS)cc1 | 21.7 µM
69 | CNc1ccc(OC)cc1S(=O)(=O)c1ccccc1[N+](=O)[O-] | > 100 µM
70 | CC1(CCCO)CCCCCC(C)(CCCO)C1=O (configuration not stated) | > 100 µM

Each compound was assayed on T-47D breast (assay: NCI tumour cell line growth inhibition, 48 h).

Row | Structure (SMILES) | TGI
71 | O=Cc1ccc2c(c1)CC1(C2)Cc2ccc3c(c2C1)CCC3 (configuration not stated) | > 85.3 µM
72 | CC(=O)Nc1cc(C(=O)Nc2cc(C(=O)N3CC(CCl)c4c3cc(N)c3ccccc43)nn2C)nn1C (configuration not stated) | 0.0931 µM
73 | O=C(O)c1n[nH]nc1Cl | > 100 µM
74 | C=C(C)C(CC=C(C)C)CC12CC(CC=C(C)C)C(C)(C)C(CC=C(C)C)(C(=O)C(Cc3ccc(O)c(O)c3)=C1O)C2=O (configuration not stated) | > 100 µM
75 | NC(Cc1cccc([N+](=O)[O-])c1)C(=O)O (configuration not stated) | > 100 µM
76 | CCC(=O)NC(Nc1cccc(F)c1C)(C(F)(F)F)C(F)(F)F | > 100 µM
77 | CCCCCN=Cc1c(O)c(O)c(C(C)C)c2cc(C)c(-c3c(C)cc4c(C(C)C)c(O)c(O)c(C=NCCCCC)c4c3O)c(O)c12 | 25.8 µM
78 | Clc1c(Cl)c(Cl)c2nn(C3CCCO3)nc2c1Cl (configuration not stated) | > 100 µM
79 | N#C/C(C(=O)Nc1ccccc1)=C(/N)N1CCOCC1 | > 100 µM
80 | O/N=C1/COC(C(F)(F)F)(C(F)(F)F)C1 | > 100 µM
81 | O=c1[nH]c(-c2ccc3ccccc3c2)nc2ccccc12 | > 100 µM
82 | CS(=O)(=O)Nc1ccc(N2Cc3cnc4ccc5[nH]ccc2c5c34)cc1 | 20.5 µM
83 | COc1ccc(C(=O)Sc2c(-c3ccccc3)c(=O)n(-c3ccccc3)c(=S)n2-c2ccccc2)cc1 | > 100 µM
84 | CCc1nc(N)nc(N)c1-c1ccc(Cl)c(Cl)c1 | > 100 µM
85 | COCCOCc1nc(C#N)c(N)o1 | > 100 µM
86 | CC1=C(C#N)C(C#N)(C#N)C(NN(C)C)C1 (configuration not stated) | 27.8 µM
87 | CN1C(=O)N/C(=C\c2ccc(S(=O)(=O)NN)cc2)C1=O | > 100 µM
88 | COc1nc(C(=O)NNC(=O)c2nc(OC)c3ccccc3c2-c2ccccc2)c(-c2ccccc2)c2ccccc12 | > 100 µM
89 | CCSc1n/c(=C\c2ccco2)c2nnnn12 | > 100 µM
90 | CC(=O)OCc1cc(CCC(=O)NCCNc2c3ccccc3nc3ccccc23)cc(COC(C)=O)c1O[Si](C)(C)C(C)(C)C | 5.73 µM
91 | COc1cc(Nc2cnc3cc(F)c(F)cc3n2)cc(OC)c1OC | > 100 µM
92 | Cc1nc2ccccc2c(=O)n1NC(=O)c1ccc(CS)cc1 | 87.6 µM
93 | COc1ccc2nc3ccc(OC)cc3c(S(=O)CCCl)c2c1 (configuration not stated) | 5.62 µM
94 | CNc1ccc(OC)cc1S(=O)(=O)c1ccccc1[N+](=O)[O-] | > 100 µM
95 | CC1(CCCO)CCCCCC(C)(CCCO)C1=O (configuration not stated) | > 100 µM

Each compound was assayed on TK-10 renal (assay: NCI tumour cell line growth inhibition, 48 h).

Row | Structure (SMILES) | TGI
96 | O=Cc1ccc2c(c1)CC1(C2)Cc2ccc3c(c2C1)CCC3 (configuration not stated) | 40.5 µM
97 | CC(=O)Nc1cc(C(=O)Nc2cc(C(=O)N3CC(CCl)c4c3cc(N)c3ccccc43)nn2C)nn1C (configuration not stated) | > 100 µM
98 | O=C(O)c1n[nH]nc1Cl | > 100 µM
99 | C=C(C)C(CC=C(C)C)CC12CC(CC=C(C)C)C(C)(C)C(CC=C(C)C)(C(=O)C(Cc3ccc(O)c(O)c3)=C1O)C2=O (configuration not stated) | > 100 µM
100 | NC(Cc1cccc([N+](=O)[O-])c1)C(=O)O (configuration not stated) | > 100 µM
101 | CCC(=O)NC(Nc1cccc(F)c1C)(C(F)(F)F)C(F)(F)F | > 100 µM
102 | CCCCCN=Cc1c(O)c(O)c(C(C)C)c2cc(C)c(-c3c(C)cc4c(C(C)C)c(O)c(O)c(C=NCCCCC)c4c3O)c(O)c12 | > 100 µM
103 | Clc1c(Cl)c(Cl)c2nn(C3CCCO3)nc2c1Cl (configuration not stated) | > 100 µM
104 | O/N=C1/COC(C(F)(F)F)(C(F)(F)F)C1 | > 100 µM
105 | O=c1[nH]c(-c2ccc3ccccc3c2)nc2ccccc12 | 13.4 µM
106 | CS(=O)(=O)Nc1ccc(N2Cc3cnc4ccc5[nH]ccc2c5c34)cc1 | 89.1 µM
107 | COc1ccc(C(=O)Sc2c(-c3ccccc3)c(=O)n(-c3ccccc3)c(=S)n2-c2ccccc2)cc1 | > 100 µM
108 | CCc1nc(N)nc(N)c1-c1ccc(Cl)c(Cl)c1 | > 100 µM
109 | COCCOCc1nc(C#N)c(N)o1 | > 100 µM
110 | CC1=C(C#N)C(C#N)(C#N)C(NN(C)C)C1 (configuration not stated) | 34 µM
111 | CN1C(=O)N/C(=C\c2ccc(S(=O)(=O)NN)cc2)C1=O | > 100 µM
112 | COc1nc(C(=O)NNC(=O)c2nc(OC)c3ccccc3c2-c2ccccc2)c(-c2ccccc2)c2ccccc12 | > 100 µM
113 | CCSc1n/c(=C\c2ccco2)c2nnnn12 | > 100 µM
114 | CC(=O)OCc1cc(CCC(=O)NCCNc2c3ccccc3nc3ccccc23)cc(COC(C)=O)c1O[Si](C)(C)C(C)(C)C | 23.2 µM
115 | COc1cc(Nc2cnc3cc(F)c(F)cc3n2)cc(OC)c1OC | > 100 µM
116 | COc1ccc2nc3ccc(OC)cc3c(S(=O)CCCl)c2c1 (configuration not stated) | 8.26 µM
117 | CNc1ccc(OC)cc1S(=O)(=O)c1ccccc1[N+](=O)[O-] | > 100 µM

Source: PubChem BioAssay (NCI)
